Laboratory results: patent US11084829B2, “Ubiquitin-specific-processing protease 7 (USP7) modulators and uses thereof” (RAPT THERAPEUTICS, INC., priority 2018, dated 2021)

Biological target: USP7 (Homo sapiens, UniProt Q93009)
Experiment: USP7 inhibitory potency (IC50)
Format: biochemical
Experimental: Activity for compounds described herein is provided in Table 2, wherein potency levels are provided as follows: (Potency: USP7 IC50: A<0.01 μM; B=0.01-0.1 μM; C=>0.1 μM.

Sequence of USP7 (Q93009 whole entry): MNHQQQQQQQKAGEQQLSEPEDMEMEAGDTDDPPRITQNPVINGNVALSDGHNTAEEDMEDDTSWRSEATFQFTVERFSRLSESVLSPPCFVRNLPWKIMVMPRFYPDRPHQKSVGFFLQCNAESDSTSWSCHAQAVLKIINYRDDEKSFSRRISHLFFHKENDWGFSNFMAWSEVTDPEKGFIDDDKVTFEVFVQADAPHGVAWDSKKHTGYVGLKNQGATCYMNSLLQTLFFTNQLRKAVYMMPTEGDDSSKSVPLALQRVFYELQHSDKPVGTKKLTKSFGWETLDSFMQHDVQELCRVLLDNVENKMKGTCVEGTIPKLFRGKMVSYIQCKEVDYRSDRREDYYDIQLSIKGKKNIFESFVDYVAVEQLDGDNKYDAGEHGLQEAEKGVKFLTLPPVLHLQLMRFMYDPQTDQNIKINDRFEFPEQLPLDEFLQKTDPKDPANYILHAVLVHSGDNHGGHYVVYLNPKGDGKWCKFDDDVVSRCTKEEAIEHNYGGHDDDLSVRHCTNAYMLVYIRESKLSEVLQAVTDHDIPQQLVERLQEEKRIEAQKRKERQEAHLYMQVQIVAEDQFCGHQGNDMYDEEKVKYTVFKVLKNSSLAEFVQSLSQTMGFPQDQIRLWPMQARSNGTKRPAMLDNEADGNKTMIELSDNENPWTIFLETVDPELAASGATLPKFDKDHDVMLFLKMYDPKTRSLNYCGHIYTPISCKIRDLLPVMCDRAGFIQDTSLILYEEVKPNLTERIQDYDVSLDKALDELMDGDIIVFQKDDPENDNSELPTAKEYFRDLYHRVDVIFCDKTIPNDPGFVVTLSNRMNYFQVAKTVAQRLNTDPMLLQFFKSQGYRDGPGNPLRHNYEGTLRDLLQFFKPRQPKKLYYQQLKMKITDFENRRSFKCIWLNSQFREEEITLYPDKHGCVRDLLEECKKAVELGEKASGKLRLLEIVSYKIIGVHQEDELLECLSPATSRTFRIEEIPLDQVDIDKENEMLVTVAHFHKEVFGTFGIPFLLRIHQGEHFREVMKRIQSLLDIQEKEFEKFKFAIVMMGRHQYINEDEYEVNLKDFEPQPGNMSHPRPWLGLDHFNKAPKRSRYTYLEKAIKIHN

| IC50 [nM] | Compound |
| --- | --- |
| < 10 | Cc1cc(Cl)cc(-c2ncnc3cc(CN4C(=O)CCNC4=O)sc23)c1C[C@@H]1CNCC(C)(C)O1 [Example 270, (R)-3-((4-(5-chloro-2-((6,6-dimethylmorpholin-2-yl)methyl)-3-methylphenyl)thieno[3,2-d]pyrimidin-6-yl)methyl)dihydropyrimidine-2,4(1H,3H)-dione] |
| < 10 | Cc1cc(Cl)cc(-c2ccnc3cc(CN4C(=O)C5CC5C4=O)sc23)c1CC1CNCC2(COC2)O1 (centres unmarked) [Example 138, 3-((7-(2-((2,5-dioxa-8-azaspiro[3.5]nonan-6-yl)methyl)-5-chloro-3-methylphenyl)thieno[3,2-b]pyridin-2-yl)methyl)-3-azabicyclo[3.1.0]hexane-2,4-dione] |
| < 10 | C[C@H]1CNC[C@H](C)N1Cc1c(Cl)cc(Cl)cc1-c1ncnc2cc(CN3C(=O)CCC3=O)sc12 [Example 92, 1-((4-(3,5-dichloro-2-(((2S,6S)-2,6-dimethylpiperazin-1-yl)methyl)phenyl)thieno[3,2-d]pyrimidin-6-yl)methyl)pyrrolidine-2,5-dione] |
| < 10 | Cc1cc(Cl)cc(-c2ncnc3cc(Cn4c(=O)ccn(CC(F)(F)F)c4=O)sc23)c1CC1CNCCO1 (centres unmarked) [Example 167, 3-((4-(5-chloro-3-methyl-2-(morpholin-2-ylmethyl)phenyl)thieno[3,2-d]pyrimidin-6-yl)methyl)-1-(2,2,2-trifluoroethyl)pyrimidine-2,4(1H,3H)-dione] |
| 10 to 100 | Cc1cc(Cl)cc(-c2ccnc3cc(CN4C(=O)C5CC5C4=O)sc23)c1C(=O)N1[C@@H](C)CNC[C@@H]1C (stereo partly drawn) [Example 35, 3-((7-(5-chloro-2-((2S,6S)-2,6-dimethylpiperazine-1-carbonyl)-3-methylphenyl)thieno[3,2-b]pyridin-2-yl)methyl)-3-azabicyclo[3.1.0]hexane-2,4-dione] |
| < 10 | Cc1cc(Cl)cc(-c2ncnc3cc(CN4C(=O)CN(CC(F)(F)F)C4=O)sc23)c1CN1[C@@H](C)CNC[C@@H]1C [Example 272, 3-((4-(5-chloro-2-(((2S,6S)-2,6-dimethylpiperazin-1-yl)methyl)-3-methylphenyl)thieno[3,2-d]pyrimidin-6-yl)methyl)-1-(2,2,2-trifluoroethyl)imidazolidine-2,4-dione] |
| < 10 | Cc1cc(Cl)cc(-c2ncnc3cc(CN4C(=O)CCC4=O)sc23)c1CC1CNCC2(COC2)O1 (centres unmarked) [Example 237, 1-((4-(2-((2,5-dioxa-8-azaspiro[3.5]nonan-6-yl)methyl)-5-chloro-3-methylphenyl)thieno[3,2-d]pyrimidin-6-yl)methyl)pyrrolidine-2,5-dione] |
| 10 to 100 | Cc1cc(Cl)cc(-c2ncnc3cc(CN4C(=O)CCN(CCCC(=O)O)C4=O)sc23)c1C[C@@H]1CNCCO1 [Example 265, (R)-4-(3-((4-(5-chloro-3-methyl-2-(morpholin-2-ylmethyl)phenyl)thieno[3,2-d]pyrimidin-6-yl)methyl)-2,4-dioxotetrahydropyrimidin-1(2H)-yl)butanoic acid] |
| < 10 | Cc1cc(Cl)cc(-c2ncnc3cc(CN4C(=O)CCCC4=O)sc23)c1CN1C[C@@H](C)NC[C@@H]1C [Example 69, 1-((4-(5-chloro-2-(((2S,5R)-2,5-dimethylpiperazin-1-yl)methyl)-3-methylphenyl)thieno[3,2-d]pyrimidin-6-yl)methyl)piperidine-2,6-dione] |
| 10 to 100 | Cc1cc(Cl)cc(-c2ncnc3cc(CN4C(=O)CCN(C)C4=O)sc23)c1C[C@H]1CNCC(C)(C)O1 [Example 214, (S)-3-((4-(5-chloro-2-((6,6-dimethylmorpholin-2-yl)methyl)-3-methylphenyl)thieno[3,2-d]pyrimidin-6-yl)methyl)-1-methyldihydropyrimidine-2,4(1H,3H)-dione] |
| 10 to 100 | Cc1cc(Cl)cc(-c2ccnc3c(F)c(CN4C(=O)CNC4=O)sc23)c1C[C@@H]1CNCCO1 [Example 147, (R)-3-((7-(5-chloro-3-methyl-2-(morpholin-2-ylmethyl)phenyl)-3-fluorothieno[3,2-b]pyridin-2-yl)methyl)imidazolidine-2,4-dione] |
| < 10 | Cc1cc(Cl)cc(-c2ncnc3cc(CN4C(=O)CN(C)C4=O)sc23)c1C[C@@H]1CNCC(C)(C)O1 [Example 275, (R)-3-((4-(5-chloro-2-((6,6-dimethylmorpholin-2-yl)methyl)-3-methylphenyl)thieno[3,2-d]pyrimidin-6-yl)methyl)-1-methylimidazolidine-2,4-dione] |
| < 10 | Cc1cc(Cl)cc(-c2ccnc3cc(CN4C(=O)CCC4=O)sc23)c1CN1CCNC(C)(C)C1 [Example 10, 1-((7-(5-chloro-2-((3,3-dimethylpiperazin-1-yl)methyl)-3-methylphenyl)thieno[3,2-b]pyridin-2-yl)methyl)pyrrolidine-2,5-dione] |
| > 100 | Cc1cc(Cl)cc(-c2ncnc3cc(CN4CCCCC4=O)sc23)c1CC1CNCCO1 (centres unmarked) [Example 175, 1-((4-(5-chloro-3-methyl-2-(morpholin-2-ylmethyl)phenyl)thieno[3,2-d]pyrimidin-6-yl)methyl)piperidin-2-one] |
| < 10 | Cc1cc(Cl)cc(-c2ncnc3cc(CN4C(=O)CCC4=O)sc23)c1C[C@@H]1CNCC(C)(C)O1 [Example 215, (R)-1-((4-(5-chloro-2-((6,6-dimethylmorpholin-2-yl)methyl)-3-methylphenyl)thieno[3,2-d]pyrimidin-6-yl)methyl)pyrrolidine-2,5-dione] |
| < 10 | Cc1cc(Cl)cc(-c2ncnc3cc(CN4C(=O)NCC(C)C4=O)sc23)c1C[C@@H]1CNCCO1 (stereo partly drawn) [Example 249, 3-((4-(5-chloro-3-methyl-2-(((R)-morpholin-2-yl)methyl)phenyl)thieno[3,2-d]pyrimidin-6-yl)methyl)-5-methyldihydropyrimidine-2,4(1H,3H)-dione] |
| < 10 | CN1CC(=O)N(Cc2cc3nccc(-c4cc(Cl)cc(Cl)c4CC4CNCCO4)c3s2)C1=O (centres unmarked) [Example 141, 3-((7-(3,5-dichloro-2-(morpholin-2-ylmethyl)phenyl)thieno[3,2-b]pyridin-2-yl)methyl)-1-methylimidazolidine-2,4-dione] |
| > 100 | Cc1cc(Cl)cc(-c2ccnc3cc(CN4C(=O)C5CC5C4=O)sc23)c1C[C@H]1O[C@H](C)CNC1=O (stereo partly drawn) [Example 105, 3-((7-(5-chloro-3-methyl-2-(((2R,6R)-6-methyl-3-oxomorpholin-2-yl)methyl)phenyl)thieno[3,2-b]pyridin-2-yl)methyl)-3-azabicyclo[3.1.0]hexane-2,4-dione] |
| < 10 | Cc1cc(Cl)cc(-c2ncnc3cc(CN4C(=O)C5CC5C4=O)sc23)c1CC1CNCC2(COC2)O1 (centres unmarked) [Example 220, 3-((4-(2-((2,5-dioxa-8-azaspiro[3.5]nonan-6-yl)methyl)-5-chloro-3-methylphenyl)thieno[3,2-d]pyrimidin-6-yl)methyl)-3-azabicyclo[3.1.0]hexane-2,4-dione] |
| < 10 | Cc1cc(Cl)cc(-c2ccnc3cc(CN4C(=O)CCC4=O)sc23)c1CN1[C@@H](C)CN(C)C[C@@H]1C [Example 29, 1-((7-(5-chloro-3-methyl-2-(((2S,6S)-2,4,6-trimethylpiperazin-1-yl)methyl)phenyl)thieno[3,2-b]pyridin-2-yl)methyl)pyrrolidine-2,5-dione] |
